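Results reflect a 48-hour exposure of cells in 96-well plates to compound at five concentrations. GI50 = concentration required for 50% inhibition of growth.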 Active and inactive are the calls of the source. No stated cut-off is given here; in the data, active = GI50 up to about 1.1 µM and inactive = higher.
How the values were obtained:
Assay in all cases: NCI-60 cell line screen, 48 h
A549 = test system: A549
OVCAR-4 = test system: OVCAR-4
DU-145 = test system: DU-145
SK-OV-3 = test system: SK-OV-3
HL-60 = test system: HL-60
SR = test system: SR
MCF7 = test system: MCF7
OVCAR-8 = test system: OVCAR-8
MDA-MB-231 = test system: MDA-MB-231
UACC-257 = test system: UACC-257
OVCAR-3 = test system: OVCAR-3
PC-3 = test system: PC-3
NCI-H460 = test system: NCI-H460
MDA-MB-435 = test system: MDA-MB-435
UACC-62 = test system: UACC-62
COLO 205 = test system: COLO 205
786-0 = test system: 786-0
OVCAR-5 = test system: OVCAR-5

Measured: GI50

CCOC(CN(C)C(=S)Nc1cccc2ccccc12)OCC
inactive: A549 > 10 µM | OVCAR-4 > 10 µM | DU-145 > 10 µM | SK-OV-3 > 10 µM | HL-60 > 10 µM | SR > 10 µM | MCF7 > 10 µM | OVCAR-8 > 10 µM | MDA-MB-231 > 10 µM | UACC-257 > 10 µM | OVCAR-3 > 10 µM | PC-3 > 10 µM | NCI-H460 > 10 µM | MDA-MB-435 > 10 µM | UACC-62 > 10 µM | COLO 205 > 10 µM | 786-0 > 10 µM

CC(C)=CCC\C(C)=C/C=C/C(C)=C\C=C\C(C)=C/C=C/C=C(C)\C=C\C=C(C)/C=C/C=C(/C)CCC=C(C)C
inactive: OVCAR-5 > 100 µM | A549 > 100 µM | OVCAR-4 > 100 µM | DU-145 > 100 µM | SK-OV-3 > 100 µM | HL-60 > 100 µM | SR > 100 µM | MCF7 > 100 µM | OVCAR-8 > 100 µM | MDA-MB-231 > 100 µM | UACC-257 > 100 µM | OVCAR-3 > 100 µM | PC-3 > 100 µM | MDA-MB-435 > 100 µM | UACC-62 > 100 µM | COLO 205 > 100 µM | 786-0 > 100 µM

Cn1cc(-c2ccc(CCOC3CCCCO3)cc2)c2c(C#N)cccc21 (stereo not drawn)
inactive: OVCAR-5 > 100 µM | A549 31 µM | OVCAR-4 31.8 µM | DU-145 > 100 µM | SK-OV-3 > 100 µM | HL-60 19.9 µM | SR 17.2 µM | MCF7 38.3 µM | OVCAR-8 > 100 µM | MDA-MB-231 86.1 µM | UACC-257 24.7 µM | OVCAR-3 67.8 µM | PC-3 27.2 µM | NCI-H460 42.6 µM | MDA-MB-435 36.9 µM | UACC-62 44.6 µM | COLO 205 27 µM | 786-0 92.3 µM

Cc1ccc(S(=O)(=O)N(CC(O)COc2ccccc2)c2c(F)c(F)cc(F)c2F)cc1 (stereo not drawn)
inactive: OVCAR-5 29 µM | A549 21.9 µM | OVCAR-4 18.7 µM | DU-145 40.8 µM | SK-OV-3 19.4 µM | HL-60 4.21 µM | SR 3.53 µM | MCF7 16.4 µM | OVCAR-8 22.4 µM | MDA-MB-231 18.3 µM | OVCAR-3 20.5 µM | PC-3 18.3 µM | NCI-H460 16.7 µM | MDA-MB-435 16.9 µM | UACC-62 16.6 µM | COLO 205 15.7 µM | 786-0 22.3 µM

COc1cc(/C=C/C(=O)OC2C(O)C3CC(OC(=O)c4cc(OC)c(OC)c(OC)c4)CC2N3C)cc(OC)c1OC (stereo not drawn)
inactive: OVCAR-5 > 50 µM | A549 > 50 µM | OVCAR-4 > 50 µM | DU-145 > 50 µM | SK-OV-3 21.8 µM | SR 10.1 µM | MCF7 23 µM | OVCAR-8 12.5 µM | MDA-MB-231 16.1 µM | UACC-257 > 50 µM | OVCAR-3 8.02 µM | PC-3 35.6 µM | NCI-H460 21.8 µM | MDA-MB-435 23.6 µM | UACC-62 > 50 µM | COLO 205 12.3 µM | 786-0 18.5 µM

CC(C)NC(=O)OCc1c2c(n(C)c1COC(=O)NC(C)C)-c1cc(Cl)c(Cl)cc1CC2
inactive: OVCAR-5 25.8 µM | A549 61 µM | OVCAR-4 64.6 µM | DU-145 70.8 µM | SK-OV-3 33.7 µM | SR > 100 µM | MCF7 15.8 µM | OVCAR-8 31 µM | MDA-MB-231 15.5 µM | UACC-257 28.4 µM | OVCAR-3 29.1 µM | PC-3 32.9 µM | NCI-H460 34.4 µM | MDA-MB-435 33.7 µM | UACC-62 43.9 µM | COLO 205 31.3 µM | 786-0 37.2 µM

OCC1OC(c2n[nH]c3c(O)ncnc23)C(O)C1O (stereo not drawn)
inactive: OVCAR-5 18.9 µM | OVCAR-4 7.89 µM | DU-145 1.48 µM | SK-OV-3 2.89 µM | HL-60 3.02 µM | SR 27.7 µM | MCF7 28.7 µM | OVCAR-8 4.11 µM | MDA-MB-231 3.66 µM | UACC-257 > 100 µM | OVCAR-3 9.18 µM | PC-3 6.68 µM | NCI-H460 10.6 µM | MDA-MB-435 34.4 µM | UACC-62 31.6 µM | COLO 205 13.9 µM | 786-0 9.4 µM

N#Cc1ccc(/C=[N+](/C=c2ccc(=C=[N-])cc2)N(CCO)C2=NCCN2)cc1
inactive: OVCAR-5 > 100 µM | A549 > 100 µM | OVCAR-4 > 100 µM | DU-145 > 100 µM | SK-OV-3 > 100 µM | HL-60 > 100 µM | SR > 100 µM | MCF7 > 100 µM | OVCAR-8 > 100 µM | MDA-MB-231 > 100 µM | UACC-257 > 100 µM | OVCAR-3 > 100 µM | PC-3 > 100 µM | NCI-H460 > 100 µM | MDA-MB-435 > 100 µM | UACC-62 > 100 µM | COLO 205 > 100 µM | 786-0 > 100 µM
